Experimental data from ChEMBL document CHEMBL4725454, “Degradation of LRRK2 in the Treatment of Parkinson's Disease” (ACS Med Chem Lett, 2020).

Assays:
[1] = target: Protein cereblon/Leucine-rich repeat serine/threonine-protein kinase 2 (Mus musculus, UniProt Q5S006+Q8C7D2, G2019S); experiment: Protac activity at CRBN/LRRK2 G2019S homozygous knock-in mutant in mouse MEF cells assessed as induction of LRRK2 degradation by measuring reduction in LRRK2 phosphorylation at S935 residue by Invitrogen Adapta assay; assay type: cell-based
[2] = target: Protein cereblon/Leucine-rich repeat serine/threonine-protein kinase 2 (Mus musculus, UniProt Q5S006+Q8C7D2); experiment: Protac activity at CRBN/LRRK2 in mouse MEF cells assessed as induction of LRRK2 degradation by measuring reduction in LRRK2 phosphorylation at S935 residue by Invitrogen Adapta assay; assay type: cell-based

## CC1(Oc2ccc3[nH]nc(-c4cc(N5CCN(C(=O)CCOCCNc6cccc7c6C(=O)N(C6CCC(=O)NC6=O)C7=O)CC5)ncn4)c3c2)CC1 (stereo unspecified)
[1]
  IC50: 1.08 nM
[2]
  IC50: 1.59 nM

## CC1(Oc2ccc3[nH]nc(-c4cc(N5CCN(C(=O)CCOCCNc6cccc7c6C(=O)N(C6CCC(=O)NC6=O)C7)CC5)ncn4)c3c2)CC1 (stereo unspecified)
[1]
  IC50: 1.47 nM
[2]
  IC50: 2.5 nM

## CC1(Oc2ccc3[nH]nc(-c4cc(N5CCN(C(=O)CCOCCOCCOCCOCCNc6cccc7c6C(=O)N(C6CCC(=O)NC6=O)C7)CC5)ncn4)c3c2)CC1 (stereo unspecified)
[1]
  IC50: 3.16 nM
[2]
  IC50: 3.14 nM

## CC1(Oc2ccc3[nH]nc(-c4cc(N5CCN(C(=O)CCOCCOCCNc6cccc7c6C(=O)N(C6CCC(=O)NC6=O)C7=O)CC5)ncn4)c3c2)CC1 (stereo unspecified)
[1]
  IC50: 1.13 nM
[2]
  IC50: 1.24 nM

## CC1(Oc2ccc3[nH]nc(-c4cc(N5CCN(C(=O)CCOCCOCCNc6cccc7c6C(=O)N(C6CCC(=O)NC6=O)C7)CC5)ncn4)c3c2)CC1 (stereo unspecified)
[1]
  IC50: 2.24 nM
[2]
  IC50: 2.58 nM

## CC1(Oc2ccc3[nH]nc(-c4cc(N5CCN(C(=O)CCOCCOCCOCCOCCNc6cccc7c6C(=O)N(C6CCC(=O)NC6=O)C7=O)CC5)ncn4)c3c2)CC1 (stereo unspecified)
[1]
  IC50: 0.98 nM
[2]
  IC50: 1.46 nM

## CNc1nc(Nc2ccc(C(=O)N3CCN(C(=O)CCCCCCCCOc4cccc5c4C(=O)N(C4CCC(=O)NC4=O)C5=O)CC3)cc2OC)ncc1C(F)(F)F (stereo unspecified)
[1]
  IC50: 1 nM
[2]
  IC50: 2 nM

## CNc1nc(Nc2ccc(C(=O)N3CCN(C(=O)CCOCCOCCOCCOCCNc4cccc5c4C(=O)N(C4CCC(=O)NC4=O)C5=O)CC3)cc2OC)ncc1C(F)(F)F (stereo unspecified)
[1]
  IC50: 2 nM
[2]
  IC50: 4 nM
